Results taken from patent US12139454B2, “Dimethylcyclobutanone compounds, dimethylcyclobutane compounds, and processes for preparing the same” (Shin-Etsu Chemical Co., Ltd., priority 2019, dated 2024).

Columns and labels:
Planococcus citri [1] = assay: Field sticky-trap luring test with lures in a navel orange field; format: in vivo; conditions: inferred from lures A and C with high contents versus lure B with low contents
From the text: The mixture of cis-(3-isopropenyl-2,2-dimethylcyclobutyl)methyl acetate, trans-(3-isopropenyl-2,2-dimethylcyclobutyl)methyl acetate, and (3-isopropylidene-2,2-dimethylcyclobutyl)methyl acetate obtained as in Example 35 was separated by 10% silver nitrate silica gel column chromatography (hexane:ethyl acetate=100:1). After the separation, they were mixed in a weight ratio of 100:43:4, 100:5:1, and 100:96:96. The mixtures were loaded each on a rubber cap made of isoprene each in an amount of 200 μg of cis-(3-isopropenyl-2,2-dimethylcyclobutyl)methyl acetate to prepare Lures A, B and C shown in the Table 1 below.
Lures A, B and C and the commercially available lure, Pherodis Planococcus citri (Koppert Biological Systems), were attached each to a sticky. Those and a sticky trap without a lure (blank) were placed in a navel orange field in Port Elizabeth, South Africa. Then, the number of lured and killed adult males of Planococcus citri (generic name: Citrus mealybug) in each trap was counted every other week. Each lure was changed every month.

Planococcus citri [2] = conditions: J. Econ. Entomol. 97, 361 (2004); cited from earlier work

C=C(C)[C@H]1C[C@H](COC(C)=O)C1(C)C (relative stereo) [trans-(3-isopropenyl-2,2-dimethylcyclobutyl)methyl acetate]
lure-inhibitory activity (surmised from the lure comparison) (Planococcus citri [1]): lure-inhibitory activity

C=C(C)[C@@H]1C[C@H](COC(C)=O)C1(C)C [(1S,3S)-(3-isopropenyl-2,2-dimethylcyclobutyl) methyl acetate]
sex pheromone activity / effect on the attraction (Planococcus citri [2]): not a sex pheromone substance, but does not disturb the attraction

CC(=O)OCC1CC(=C(C)C)C1(C)C (stereo not drawn) [(3-isopropylidene-2,2-dimethylcyclobutyl)methyl acetate]
lure-inhibitory activity (surmised from the lure comparison) (Planococcus citri [1]): lure-inhibitory activity
